Data reported in patent US20090208448A1, “Inhibition of angiogenesis” (priority 2008, published 2009).
Entries after “also recorded” stand apart in the source; their conditions may differ.

Assays:
serum cholesterol = assay: Serum cholesterol levels in diet/ezetimibe SCID mouse cohorts (Infinity colorimetric assay); assay type: in vivo, SCID mice; conditions: ezetimibe 30 mg/kg/d, 4 weeks, both LFNC and HFHC diet groups, drug F=23.48, p<0.001
Method: Mice and Tumor Xenografts. 5 week old SCID mice were obtained from the Massachusetts General Hospital and were fed a low fat/no cholesterol diet (LFNC) (Research Diets, New Brunswick, N.J. diet # D12102) for two weeks, blood was drawn from the saphenous tail vein and the serum cholesterol concentration was determined using the Infinity Cholesterol Liquid Stable Reagent (Thermo Electron Corp.). For intact (non-castrated) mice, the animals were divided into the high fat/high cholesterol diet (HFHC) (Research Diets, diet # D12108) and LFNC groups with and without ezetimibe (30 mg/kg/day; Schering-Plough, New Brunswick, N.J.) and the mice continued on these diets for four weeks. For castrated mice, the mice were divided into 4 groups, 2 groups were castrated, and 2 groups were left intact. […] Tumors were measured daily from the initiation of the first palpable tumors and the mice sacrificed prior to reaching the maximum tumor burden (13-23 days post implantation). Terminal bleeds were taken (Cardiac puncture) for serology (triglyceride, bilirubin and other liver function tests were performed in the Dept. of Laboratory Medicine, Children's Hospital Boston, androgen levels were determined by a testosterone EIA, Diagnostic Systems Laboratories, Webster, Tex.). Tumors were removed, measured, weighed and either placed in OCT solution (Tissue-Tek, Torrance, Calif.) or snap frozen. […]

[1] = system: LNCaP human prostate tumor xenografts; assay: Growth of implanted LNCaP prostate tumor xenografts (volume, wet weight, take); assay type: in vivo, SCID mice
Method: (§1) Mice and Tumor Xenografts. 5 week old SCID mice were obtained from the Massachusetts General Hospital and were fed a low fat/no cholesterol diet (LFNC) (Research Diets, New Brunswick, N.J. diet # D12102) for two weeks, blood was drawn from the saphenous tail vein and the serum cholesterol concentration was determined using the Infinity Cholesterol Liquid Stable Reagent (Thermo Electron Corp.). For intact (non-castrated) mice, the animals were divided into the high fat/high cholesterol diet (HFHC) (Research Diets, diet # D12108) and LFNC groups with and without ezetimibe (30 mg/kg/day; Schering-Plough, New Brunswick, N.J.) and the mice continued on these diets for four weeks. For castrated mice, the mice were divided into 4 groups, 2 groups were castrated, and 2 groups were left intact. The mice were fed either the LFNC, or a low fat/high cholesterol diet (LFHC) (Research Diets, diet #D12104) for 80 days. Xenografts were initiated by injecting LNCaP (2×10^6 per site) with 1:1 volume of Matrigel (BD BioSciences, San Jose, Calif.) into the 4 dorsal quadrants of each mouse. In order to eliminate any injection bias, the mice were randomized prior to implantation and the implanter was blinded to which group each mouse was assigned. All animal procedures were done in compliance with Children's Hospital Boston's animal care and use policies. Tumors were measured daily from the initiation of the first palpable tumors and the mice sacrificed prior to reaching the maximum tumor burden (13-23 days post implantation). Terminal bleeds were taken (Cardiac puncture) for serology (triglyceride, bilirubin and other liver function tests were performed in the Dept. of Laboratory Medicine, Children's Hospital Boston, androgen levels were determined by a testosterone EIA, Diagnostic Systems Laboratories, Webster, Tex.). Tumors were removed, measured, weighed and either placed in OCT solution (Tissue-Tek, Torrance, Calif.) or snap frozen.
Following alteration of cholesterol levels, the mice from Example 3 were injected subcutaneously with 2×10^6 LNCaP cells in their flanks (4 tumors/mouse). Regimens were continued following implantation, and the experiment continued for 13 days following the initial appearance of tumors. Tumor volume was measured daily (FIG. 2B). […] The overall effect of diet and ezetimibe was independent and additive, not synergistic. […] Tumor take was >95% in all groups and no significant differences in tumor take were observed.

LNCaP xenograft tumors [2] = assay: Tumor membrane cholesterol analysis; assay type: in vivo, SCID mice; conditions: ezetimibe main effect p<0.0001, n=9/group
Method: Tumor cholesterol analysis. Tumors were finely minced in phosphate buffered saline (PBS) on ice and the level of cholesterol was determined as described previously (Boucher, K., Siegel, C. S., Sharma, P., Hauschka, P. V., and Solomon, K. R. 2006. HMG-CoA reductase inhibitors induce apoptosis in pericytes. Microvasc Res 71:91-102).

LNCaP xenograft tumors [3] = assay: Tumor cell apoptosis (TUNEL staining); assay type: in vivo, SCID mice; conditions: ezetimibe main effect p<0.0001, no synergy with diet (p=0.85)
Method: Apoptosis. Percentage of apoptotic cells in tumor sections was determined by TUNEL assay using the In Situ Cell Death Detection Kit (Roche Diagnostics Corp. Indianapolis, Ind.). Briefly, frozen tumor sections were fixed in 4% paraformaldehyde (PFA), permeabilized and the DNA stained with fluorescein following the manufacturer's instructions. Nuclei were counterstained with DAPI (Vector Labs, Burlingame, Calif.). Images were captured using a Zeiss microscope and the positive cells and nuclei were counted using Axiovision software 4.0.

LNCaP xenograft tumors [4] = assay: Tumor cell proliferation (Ki67 staining); assay type: in vivo, SCID mice
Method: (§2) Immunofluorescence. Tumor samples frozen in OCT were sectioned (3-20 μm thick), mounted on Superfrost slides (ThermoFisher Scientific, Waltham, Mass.), and air-dried for 30 min. Sections were then fixed using cold acetone (5 min), followed by 1:1 acetone:chloroform (5 min), and then acetone (5 min) or by using 4% PFA at room temp (30 min) followed by 0.025% PBS/Triton X-100 (5 min) to permeabilize the cells. Sections were washed with cold PBS 3× for 5 min each and were incubated in a protein blocking solution of PBS/Tween (0.1%) with 5% bovine serum albumin (BSA; Sigma) at room temp (30 min) and were then washed in cold PBS 3× for 5 min each. The appropriate primary antibodies diluted 1:200-1:1000 in blocking solution were incubated with the sections overnight at 4° C. Sections were washed 3× for 5 min in cold PBS, and incubated in blocking solution (10 min). The sections were then incubated with the appropriate fluorescent secondary reporter antibodies diluted 1:500-1:5000 in blocking solution at room temp (30 min) followed by washing 3× in PBS. Nuclei were counter-stained with DAPI. Double staining of CD31 with TSP-1 and CD31 with SMA were performed sequentially as described above. Blood vessel analysis was done using IPLab software (BD Biosciences Bioimaging, Rockville, Md.) as previously described (Bielenberg, D. R., Hida, Y., Shimizu, A., Kaipainen, A., Kreuter, M., Kim, C. C., and Klagsbrun, M. 2004. Semaphorin 3F, a chemorepulsant for endothelial cells, induces a poorly vascularized, encapsulated, nonmetastatic tumor phenotype. J Clin Invest 114:1260-1271). Thombospndin-1 (TSP-1) analysis was done using the outline spline in AxioVision 4.0 software. Ki67 positive cells and nuclei were quantified using AxioVision 4.0 software.

LNCaP xenograft tumors [5] = assay: Tumor hemoglobin quantification; assay type: in vivo, SCID mice; conditions: n=20
Method: Hemoglobin Assay. Tumors were finely minced in 1 ml of fresh PBS on ice. The minced tissue suspensions were centrifuged at 10,000 g at 4° C. (2 min) and the supernatant was removed. The optical density (OD) of the clarified supernatants was read at 650 nm (background) and 530 nm (hemoglobin) using a spectrophotometer (Boyle, M. D., and Ohanian, S. H. 1980. Evidence for the influence of the initial complement components on the assembly and activity of the membrane attack complex. J Immunol 124:2824-2827; Gee, A. P., Boyle, M. D., and Borsos, T. 1980. Distinction between C8-mediated and C8/C9-mediated hemolysis on the basis of independent 86Rb and hemoglobin release. J Immunol 124:1905-1910).

LNCaP xenograft tumors [6] = assay: Microvessel density (MVD), CD31 analysis; assay type: in vivo, SCID mice; conditions: ezetimibe p=0.013, larger effects with HFHC (p=0.01)
Method: as §2, with “Blood vessel analysis was done using IPLab software (BD Biosciences Bioimaging, Rockville, Md.) as previously described (Bielenberg, D. R., Hida, Y., Shimizu, A., Kaipainen, A., Kreuter, M., Kim, C. C., and Klagsbrun, M. 2004. Semaphorin 3F, a chemorepulsant for endothelial cells, induces a poorly vascularized, encapsulated, nonmetastatic tumor phenotype. J Clin Invest 114:1260-1271). Thombospndin-1 (TSP-1) analysis was done using the outline spline in AxioVision 4.0 software.” left out

LNCaP xenograft tumors [7] = assay: MVD, caveolin-1 analysis (immunoblotting and immunofluorescence); assay type: in vivo, SCID mice
Method: (§3) Immunofluorescence. Tumor samples frozen in OCT were sectioned (3-20 μm thick), mounted on Superfrost slides (ThermoFisher Scientific, Waltham, Mass.), and air-dried for 30 min. Sections were then fixed using cold acetone (5 min), followed by 1:1 acetone:chloroform (5 min), and then acetone (5 min) or by using 4% PFA at room temp (30 min) followed by 0.025% PBS/Triton X-100 (5 min) to permeabilize the cells. Sections were washed with cold PBS 3× for 5 min each and were incubated in a protein blocking solution of PBS/Tween (0.1%) with 5% bovine serum albumin (BSA; Sigma) at room temp (30 min) and were then washed in cold PBS 3× for 5 min each. The appropriate primary antibodies diluted 1:200-1:1000 in blocking solution were incubated with the sections overnight at 4° C. Sections were washed 3× for 5 min in cold PBS, and incubated in blocking solution (10 min). […] Ki67 positive cells and nuclei were quantified using AxioVision 4.0 software.
Lysates and Immunoblotting. […] Protein concentrations were determined by microBCA (Pierce/Thermo Scientific) and equal amounts of the lysates were subjected to SDS-PAGE and immunoblotting as described previously (Zhuang, L., Kim, J., Adam, R. M.-, Solomon, K. R., and Freeman, M. R. 2005. Cholesterol targeting alters lipid raft composition and cell survival in prostate cancer cells and xenografts. J Clin Invest 115:959-968).

LNCaP xenograft tumors [8] = assay: Fibroblast staining of tumor sections; assay type: in vivo, SCID mice; conditions: HFHC condition, p=0.03, n=55/group
Method: as §3, with “min). The sections were then incubated with the appropriate fluorescent secondary reporter antibodies diluted 1:500-1:5000 in blocking solution at room temp (30 min) followed by washing 3× in PBS. Nuclei were counter-stained with DAPI. Double staining of CD31 with TSP-1 and CD31 with SMA were performed sequentially as described above.” for “min).”

LNCaP xenograft tumors [9] = assay: Pericyte coverage of microvessels (SMA staining); assay type: in vivo, SCID mice; conditions: ezetimibe groups, p<0.0001
Method: as §3, with “min). The sections were then incubated with the appropriate fluorescent secondary reporter antibodies diluted 1:500-1:5000 in blocking solution at room temp (30 min) followed by washing 3× in PBS. Nuclei were counter-stained with DAPI. Double staining of CD31 with TSP-1 and CD31 with SMA were performed sequentially as described above.” for “min).”

thrombospondin-1 (TSP-1) = assay: Thrombospondin-1 (TSP-1) levels in tumor sections; assay type: in vivo, SCID mice; conditions: ezetimibe p<0.0001
Method: as §3, with “min). The sections were then incubated with the appropriate fluorescent secondary reporter antibodies diluted 1:500-1:5000 in blocking solution at room temp (30 min) followed by washing 3× in PBS. Nuclei were counter-stained with DAPI. Double staining of CD31 with TSP-1 and CD31 with SMA were performed sequentially as described above.” for “min).”

[10] = Serology (triglyceride, liver function tests) and feeding observation; assay type: in vivo, SCID mice
Method: as §1

VEGF or bFGF = VEGF or bFGF expression in the cohorts; assay type: in vivo, SCID mice; conditions: between the diet/drug cohorts, data not shown
[11] = literature (Jurado 2004; Knopp 2003); cited from earlier work

## O=C1[C@H](CC[C@H](O)c2ccc(F)cc2)[C@@H](c2ccc(O)cc2)N1c1ccc(F)cc1 [ezetimibe]
Serum cholesterol
  serum cholesterol: significant effects
Serum cholesterol; listed as Ezetimibe
  serum cholesterol: significant reductions
[1]; LFNC diet with drug, p=0.021 vs HFHC (0.88±0.71 g)
  tumor wet weight at sacrifice: 0.63 ± 0.55 g
[1]; LFNC+Z group, p=0.021 vs HFHC (0.88±0.71)
  tumor wet weight at sacrifice: 0.63±0.55 average grams/tumor site
[1]; all diet/drug groups, no significant differences
  tumor take: > 95%
[1]; ezetimibe 30 mg/kg/day added to diet, 13 days from first appearance of tumors, p=0.035
  tumor growth rates (tumor volume): Significantly reduced
LNCaP xenograft tumors [2]
  tumor cholesterol levels (membranes): highly significant main effects; also recorded: independently affected
LNCaP xenograft tumors [3]
  tumor cell apoptosis (relative level of TUNEL staining): highly significant main effects; also recorded: significantly increased
LNCaP xenograft tumors [4]; HFHC diet w/ezetimibe (HFHC alone 41.16)
  relative level of Ki67 staining: 30.32 (95% CI; 26.96-33.68)
LNCaP xenograft tumors [4]; LFNC diet w/ezetimibe (LFNC alone 28.78)
  relative level of Ki67 staining: 25.57 (95% CI; 22.21-28.93)
LNCaP xenograft tumors [4]; ezetimibe by diet interaction p=0.027, magnitude depends on the diet
  tumor cell proliferation (Ki67), effect in words: significant effect on lowering proliferation
LNCaP xenograft tumors [5]; HFHC+Z vs HFHC
  relative hemoglobin/mg tumor tissue: statistical significance
LNCaP xenograft tumors [5]; LFNC vs LFNC+Z
  relative hemoglobin/mg tumor tissue: not statistically different
LNCaP xenograft tumors [6]
  microvessel density (relative level of CD31 staining): highly significant main effect; also recorded: significantly suppressed
LNCaP xenograft tumors [7]; both diet conditions, p=0.027, n=6/group
  average caveolin-1 signal, immunoblotting: significant drug effect in lowering caveolin
LNCaP xenograft tumors [7]; ezetimibe p<0.0001, n=43/group
  relative level of caveolin-1 staining, immunofluorescence: highly significant main effects
LNCaP xenograft tumors [8]
  relative level of fibroblast staining: statistically significant ezetimibe effect
LNCaP xenograft tumors [9]
  pericyte coverage of vessels (relative level of SMA staining): highly significant main effects; also recorded: dramatically increased
thrombospondin-1 (TSP-1)
  TSP-1 levels in tumors (relative level of TSP-1 staining): highly significant main effects; also recorded: enhanced
[10]; any mouse, all groups, data not shown
  liver function (AST, ALP, bilirubin etc): no liver dysfunction
[10]; ezetimibe cohorts, data not shown
  serum triglyceride levels: no significant reduction; also recorded: nor were triglyceride levels significantly reduced
[10]; observation, calorie intake 21.18 Kcal/d
  feeding behavior: did not alter feeding behavior
VEGF or bFGF
  VEGF or bFGF expression: no differences
[11]
  triglyceride levels in humans: modest effect
